How the values were obtained:
[1] = test system: Puccinia recondita f. sp. tritici; test: Leaf disk assay, Puccinia recondita f. sp. tritici (wheat brown rust), preventive; assay type: in vivo; conditions: 200 ppm; wheat leaf segments; assessed nine days after inoculation
Experimental: The compounds were tested in a leaf disk assay, with methods described below. The test compounds were dissolved in DMSO and diluted into water to 200 ppm. In the case of the test on Pythium ultimum, they were dissolved in DMSO and diluted into water to 20 ppm.
Erysiphe graminis f. sp. hordei (barley powdery mildew): Barley leaf segments were placed on agar in a 24-well plate and sprayed with a solution of the test compound. After allowing to dry completely, for between 12 and 24 hours, the leaf disks were inoculated with a spore suspension of the fungus. After appropriate incubation the activity of a compound was assessed four days after inoculation as preventive fungicidal activity. Erysiphe graminis f. sp. tritici (wheat powdery mildew): Wheat leaf segments were placed on agar in a 24-well plate and sprayed with a solution of the test compound. After allowing to dry completely, for between 12 and 24 hours, the leaf disks were inoculated with a spore suspension of the fungus. After appropriate incubation the activity of a compound was assessed four days after inoculation as preventive fungicidal activity. […] After appropriate incubation the activity of a compound was assessed nine days after inoculation as preventive fungicidal activity. […] After appropriate incubation the activity of a compound was assessed four days after inoculation as preventive fungicidal activity.

Pyricularia oryzae = assay type: in vivo; conditions: 200 ppm; rice leaf segments; assessed four days after inoculation

| SMILES | control of fungal infection [1] | control of fungal infection (Pyricularia oryzae) |
| --- | --- | --- |
| C#CC(C)(C)NC(=O)C(Oc1ccc2oc3ccccc3c2c1)SC (centres unmarked) [1 (16)] | at least 60% | – |
| CC#CC(C)(C)NC(=O)C(Oc1ccc2oc3ccccc3c2c1)SC (centres unmarked) [4 (16), 2-(dibenzofuranyl-2-oxy)-2-methylthio-N-(2-methylpent-3-yn-2-yl)acetamide] | – | at least 60% |

Source: patent US8193361B2, “I-alkynyl 2-aryloxyalkylamides and their use as fungicides” (Syngenta Limited, priority 2004, dated 2012)
